Test results published in ChEMBL document CHEMBL1139078, “ortho-Substituted azoles as selective and dual inhibitors of VEGF receptors 1 and 2” (Bioorg Med Chem Lett, 2007).

Key:
[1] = target: T1, Vascular endothelial growth factor receptor 1 (Homo sapiens, UniProt P17948); assay: Inhibition of VEGFR1 by HTRF assay
Target sequence in this assay (P17948 whole entry, looked up): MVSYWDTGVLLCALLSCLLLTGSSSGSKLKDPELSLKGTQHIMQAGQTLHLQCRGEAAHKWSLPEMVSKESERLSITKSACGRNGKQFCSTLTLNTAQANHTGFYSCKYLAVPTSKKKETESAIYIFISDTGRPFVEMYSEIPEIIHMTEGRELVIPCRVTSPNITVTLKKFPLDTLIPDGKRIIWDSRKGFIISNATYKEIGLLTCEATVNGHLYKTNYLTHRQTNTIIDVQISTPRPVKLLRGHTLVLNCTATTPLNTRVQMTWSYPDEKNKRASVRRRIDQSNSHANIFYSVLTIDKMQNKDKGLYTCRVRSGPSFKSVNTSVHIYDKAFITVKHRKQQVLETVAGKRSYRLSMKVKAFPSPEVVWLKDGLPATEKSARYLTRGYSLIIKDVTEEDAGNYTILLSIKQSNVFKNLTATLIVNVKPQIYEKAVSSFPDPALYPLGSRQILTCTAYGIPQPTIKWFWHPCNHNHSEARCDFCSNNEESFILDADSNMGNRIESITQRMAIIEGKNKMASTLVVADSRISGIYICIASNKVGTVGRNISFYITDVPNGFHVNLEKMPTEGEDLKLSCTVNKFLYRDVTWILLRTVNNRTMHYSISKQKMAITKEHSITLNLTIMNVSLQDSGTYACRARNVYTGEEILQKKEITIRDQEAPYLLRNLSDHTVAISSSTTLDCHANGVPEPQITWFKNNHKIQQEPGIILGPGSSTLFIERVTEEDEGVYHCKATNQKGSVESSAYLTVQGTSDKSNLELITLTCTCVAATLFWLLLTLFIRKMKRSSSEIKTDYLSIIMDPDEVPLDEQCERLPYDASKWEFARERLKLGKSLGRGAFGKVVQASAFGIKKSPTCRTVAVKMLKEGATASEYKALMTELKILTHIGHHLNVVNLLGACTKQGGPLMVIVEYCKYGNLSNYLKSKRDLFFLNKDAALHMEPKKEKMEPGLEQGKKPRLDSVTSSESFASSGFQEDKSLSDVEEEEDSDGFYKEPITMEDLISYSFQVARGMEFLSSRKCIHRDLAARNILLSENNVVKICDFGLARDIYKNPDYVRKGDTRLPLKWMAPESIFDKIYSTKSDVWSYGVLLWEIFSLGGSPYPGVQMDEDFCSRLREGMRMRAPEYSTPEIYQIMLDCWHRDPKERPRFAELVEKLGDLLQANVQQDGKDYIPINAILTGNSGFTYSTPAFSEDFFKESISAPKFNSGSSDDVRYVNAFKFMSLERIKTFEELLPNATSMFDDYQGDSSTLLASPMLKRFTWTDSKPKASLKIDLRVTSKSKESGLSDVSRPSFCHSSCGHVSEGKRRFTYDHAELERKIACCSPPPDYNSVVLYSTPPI

[2] = target: T2, Vascular endothelial growth factor receptor 2 (Homo sapiens, UniProt P35968); assay: Inhibition of VEGFR2 by HTRF assay
[3] = target: T2, Vascular endothelial growth factor receptor 2; assay: Inhibition of VEGFR2 by cell-based assay; assay type: functional
[4] = Intrinsic permeability across Caco-2 cell monolayers; details: human
[5] = target: T2, Vascular endothelial growth factor receptor 2; assay: Inhibition of VEGFR2 by [32P]ATP-competitive radioassay
[6] = target: T1, Vascular endothelial growth factor receptor 1; assay: Inhibition of VEGFR1 by HTRF assay
Target sequence in this assay (P17948 whole entry): as the sequence (P17948 whole entry, looked up) above

[7] = target: T2, Vascular endothelial growth factor receptor 2; assay: Inhibition of VEGFR2 by HTRF assay

T2 sequence (P35968 whole entry): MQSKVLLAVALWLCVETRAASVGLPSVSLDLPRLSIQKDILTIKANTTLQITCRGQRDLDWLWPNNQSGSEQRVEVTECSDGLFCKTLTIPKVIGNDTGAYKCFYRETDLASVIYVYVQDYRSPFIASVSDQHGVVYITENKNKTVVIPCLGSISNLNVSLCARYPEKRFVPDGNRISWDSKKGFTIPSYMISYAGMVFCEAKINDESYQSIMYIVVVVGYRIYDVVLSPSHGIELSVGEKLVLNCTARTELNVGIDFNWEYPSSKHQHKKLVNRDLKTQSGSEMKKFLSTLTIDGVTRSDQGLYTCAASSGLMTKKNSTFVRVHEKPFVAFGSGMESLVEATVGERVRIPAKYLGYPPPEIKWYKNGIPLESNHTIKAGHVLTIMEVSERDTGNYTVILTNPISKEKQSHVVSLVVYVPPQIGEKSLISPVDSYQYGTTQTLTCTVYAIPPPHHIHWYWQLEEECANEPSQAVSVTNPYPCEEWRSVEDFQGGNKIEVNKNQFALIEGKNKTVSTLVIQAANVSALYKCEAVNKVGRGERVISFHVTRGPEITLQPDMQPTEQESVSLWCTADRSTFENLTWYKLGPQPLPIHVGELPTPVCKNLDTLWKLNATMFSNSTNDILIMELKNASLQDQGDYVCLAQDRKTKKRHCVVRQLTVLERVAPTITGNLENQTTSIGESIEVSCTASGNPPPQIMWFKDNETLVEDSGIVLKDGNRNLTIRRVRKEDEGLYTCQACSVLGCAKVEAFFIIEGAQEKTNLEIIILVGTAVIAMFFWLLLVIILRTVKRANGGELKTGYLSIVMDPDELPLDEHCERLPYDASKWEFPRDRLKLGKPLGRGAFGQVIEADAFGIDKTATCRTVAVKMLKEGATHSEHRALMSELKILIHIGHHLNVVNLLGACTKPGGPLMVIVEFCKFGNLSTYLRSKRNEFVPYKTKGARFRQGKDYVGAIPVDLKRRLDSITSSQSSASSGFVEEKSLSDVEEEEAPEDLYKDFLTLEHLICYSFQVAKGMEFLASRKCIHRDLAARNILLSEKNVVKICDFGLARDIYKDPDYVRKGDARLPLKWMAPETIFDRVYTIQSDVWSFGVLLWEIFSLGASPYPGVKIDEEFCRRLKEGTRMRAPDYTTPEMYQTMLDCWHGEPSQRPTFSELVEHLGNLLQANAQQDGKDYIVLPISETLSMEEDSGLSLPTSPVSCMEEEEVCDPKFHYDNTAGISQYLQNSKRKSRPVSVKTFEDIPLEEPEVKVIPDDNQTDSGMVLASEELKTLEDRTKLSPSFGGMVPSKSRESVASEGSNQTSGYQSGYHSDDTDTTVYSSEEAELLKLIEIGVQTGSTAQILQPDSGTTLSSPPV

| Compound | IC50 [1] [nM] | IC50 [2] [nM] | IC50 [3] [nM] | Papp [4] [×10⁻⁶ cm/s] | Ki [5] [nM] | IC50 [6] [nM] | IC50 [7] [nM] |
| --- | --- | --- | --- | --- | --- | --- | --- |
| CC(C)c1ccc(NC(=O)c2c(NCc3ccncc3)ncn2C)cc1 | 270 | 180 | 75 | 6.2 |  |  |  |
| Cn1cnc(NCc2ccncc2)c1C(=O)Nc1ccc(Cl)c(Cl)c1 | 550 | 370 | 96 | 7.03 |  |  |  |
| Cc1cc(NC(=O)c2c(NCc3ccncc3)ncn2C)ccc1C(F)(F)F | 510 | 210 | 64 | 7.1 | 160 |  |  |
| Cn1ncc(NCc2ccc3c(c2)OCO3)c1C(=O)Nc1cccc(C(F)(F)F)c1 |  |  | > 10000 |  |  | 5290 | > 10000 |
| Cn1cnc(NCc2ccncc2)c1C(=O)Nc1ccc(C(C)(C)C)cc1 | 110 | 87 | 64 | 7.55 | 200 |  |  |
| Cn1ncc(NCc2ccncc2)c1C(=O)Nc1ccc(OC(F)(F)F)cc1 | 1870 | 730 | 64 | 5.42 | 170 |  |  |
| Cn1ncc(NCc2ccncc2)c1C(=O)Nc1ccc(C(C)(C)C)cc1 | 180 | 130 | 45 | 6.25 |  |  |  |

The remaining lines, values ahead:

| IC50 [1] [nM] | IC50 [2] [nM] | IC50 [3] [nM] | Papp [4] [×10⁻⁶ cm/s] | Ki [5] [nM] | IC50 [6] [nM] | IC50 [7] [nM] | Compound |
| --- | --- | --- | --- | --- | --- | --- | --- |
| > 10000 | 250 | 1650 | 0.95 |  |  |  | Cn1cnc(NCc2ccncc2)c1C(=O)Nc1ccc(Cl)cc1 |
| 350 | 210 | 57 | 8.22 |  |  |  | COc1ccc(NC(=O)c2c(NCc3ccncc3)ncn2C)cc1OC |
| 1260 | 950 | 170 | 6.15 |  |  |  | Cn1cnc(NCc2ccncc2)c1C(=O)Nc1ccc(Cl)c(C(F)(F)F)c1 |
| 560 | 330 | 69 | 5.52 |  |  |  | Cc1cc(NC(=O)c2c(NCc3ccncc3)cnn2C)ccc1C(F)(F)F |
|  |  | > 10000 |  |  | 2270 | 3120 | Cn1cnc(NCc2ccc3c(c2)OCO3)c1C(=O)Nc1cccc(C(F)(F)F)c1 |
|  |  | > 10000 |  |  | 1680 | 2550 | Cn1cnc(NCc2ccc3c(c2)OCO3)c1C(=O)Nc1ccc(C(F)(F)F)cc1 |
| 360 | 250 | 82 | 6.73 |  |  |  | Cn1ncc(NCc2ccncc2)c1C(=O)Nc1ccc(Cl)c(Cl)c1 |
| 350 | 290 | 88 | 3.6 |  |  |  | Cn1cnc(NCc2ccncc2)c1C(=O)Nc1ccc(C(F)(F)F)c(Cl)c1 |
| 610 | 340 |  | 5.93 |  |  |  | Cc1ccc(NC(=O)c2c(NCc3ccncc3)ncn2C)cc1C(F)(F)F |
